From ChEMBL document CHEMBL3774360, “Potent multitarget FAAH-COX inhibitors: Design and structure-activity relationship studies” (Eur J Med Chem, 2016)

Legend:
[1] = target: D(1A) dopamine receptor (Homo sapiens) (UniProt P21728); test: Binding affinity to human dopamine D1 receptor at 10 uM by radioligand binding assay
[2] = target: Glucocorticoid receptor (Homo sapiens) (UniProt P04150); test: Binding affinity to human glucocorticoid receptor at 10 uM by radioligand binding assay
[3] = target: Endothelin receptor type B (Homo sapiens) (UniProt P24530); test: Binding affinity to human ETB receptor at 10 uM by radioligand binding assay
[4] = target: Beta-2 adrenergic receptor (Homo sapiens) (UniProt P07550); test: Binding affinity to beta-2 adrenergic receptor (unknown origin) at 10 uM by radioligand binding assay
[5] = species: Homo sapiens; test: Binding affinity to sodium channel site 2 (unknown origin) at 10 uM by radioligand binding assay
[6] = target: Catechol O-methyltransferase (Homo sapiens) (UniProt P21964); test: Binding affinity to COMT (unknown origin) at 10 uM
[7] = target: Thromboxane A2 receptor (Homo sapiens) (UniProt P21731); test: Antagonist activity against human TP receptor at 10 uM; design: scale not given: the % may be the effect or the level left
[8] = target: Cannabinoid receptor 1 (Homo sapiens) (UniProt P21554); test: Binding affinity to human cannabinoid receptor 1 at 10 uM by radioligand binding assay
[9] = target: Adenosine receptor A2a (Homo sapiens) (UniProt P29274); test: Binding affinity to human adenosine A2A receptor at 10 uM by radioligand binding assay
[10] = target: Amine oxidase [flavin-containing] A (Homo sapiens, UniProt P21397); test: Binding affinity to human MAO-A at 10 uM
[11] = target: Prostacyclin receptor (Homo sapiens) (UniProt P43119); test: Binding affinity to human IP receptor at 10 uM by radioligand binding assay
[12] = species: Homo sapiens; test: Binding affinity to PCP receptor (unknown origin) at 10 uM by radioligand binding assay
[13] = target: Polyunsaturated fatty acid lipoxygenase ALOX15B (Homo sapiens) (UniProt O15296); test: Binding affinity to recombinant human 15-Lipoxygenase-2 at 10 uM
[14] = target: Vasopressin V2 receptor (Homo sapiens) (UniProt P30518); test: Binding affinity to human V2 receptor at 10 uM by radioligand binding assay
[15] = target: Glutamate [NMDA] receptor (Homo sapiens) (UniProt Q05586+Q12879+Q13224+O15399+O60391+Q14957+Q8TCU5); test: Binding affinity to NMDA receptor (unknown origin) at 10 uM by radioligand binding assay
[16] = target: Nitric oxide synthase, inducible (Homo sapiens) (UniProt P35228); test: Binding affinity to inducible NOS (unknown origin) at 10 uM
[17] = target: Histone deacetylase 3 (Homo sapiens) (UniProt O15379); test: Binding affinity to human HDAC3 at 10 uM
[18] = target: High affinity choline transporter 1 (Homo sapiens) (UniProt Q9GZV3); test: Binding affinity to human CHT1 transporter at 10 uM by radioligand binding assay
[19] = target: Protein kinase C alpha type (Homo sapiens) (UniProt P17252); test: Binding affinity to human PKC-alpha at 10 uM
[20] = target: Thromboxane A2 receptor (Homo sapiens) (UniProt P21731); test: Agonist activity against human TP receptor at 10 uM
[21] = species: Homo sapiens; test: Binding affinity to P2X receptor (unknown origin) at 10 uM by radioligand binding assay
[22] = test system: Voltage-gated potassium channel; test: Binding affinity to voltage-gated potassium channel (unknown origin) at 10 uM by radioligand binding assay; type: protein assay; settings: human
[23] = species: Homo sapiens; test: Binding affinity to neuropeptide Y receptor (unknown origin) at 10 uM by radioligand binding assay
[24] = target: Adenylate cyclase (Homo sapiens) (UniProt Q8NFM4+O60503+Q08828+P40145+O60266+O95622+O43306+Q08462+P51828); test: Activation of adenylyl cyclase (unknown origin) at 10 uM; type: protein assay
[25] = species: Homo sapiens; test: Binding affinity to L-type calcium channel diltiazem binding site (unknown origin) at 10 uM by radioligand binding assay
[26] = target: Centromere-associated protein E (Homo sapiens) (UniProt Q02224); test: Binding affinity to human CENP-E at 10 uM
[27] = target: Androgen receptor (Homo sapiens) (UniProt P10275); test: Binding affinity to human androgen receptor at 10 uM by radioligand binding assay
[28] = target: Thyrotropin-releasing hormone receptor (Homo sapiens) (UniProt P34981); test: Binding affinity to human TRH1 receptor at 10 uM by radioligand binding assay
[29] = target: 3',5'-cyclic-AMP phosphodiesterase 4D (Homo sapiens) (UniProt Q08499); test: Binding affinity to human PDE4D2 at 10 uM
[30] = species: Homo sapiens; test: Binding affinity to GABA receptor (unknown origin) at 10 uM by radioligand binding assay
[31] = target: Vasopressin V1a receptor (Homo sapiens) (UniProt P37288); test: Binding affinity to human V1a receptor at 10 uM by radioligand binding assay
[32] = target: Opioid receptors; mu/kappa/delta (Homo sapiens) (UniProt P41145+P41143+P35372); test: Binding affinity to opioid receptor (unknown origin) at 10 uM by radioligand binding assay
[33] = target: Transient receptor potential cation channel subfamily V member 1 (Homo sapiens) (UniProt Q8NER1); test: Agonist activity against human TRPV1 receptor at 10 uM
[34] = target: Transient receptor potential cation channel subfamily V member 1 (Homo sapiens) (UniProt Q8NER1); test: Antagonist activity against human TRPV1 receptor at 10 uM; design: scale not given: the % may be the effect or the level left
[35] = species: Homo sapiens; test: Binding affinity to human muscarinic receptor at 10 uM by radioligand binding assay
[36] = target: Cholecystokinin receptor type A (Homo sapiens) (UniProt P32238); test: Binding affinity to human cholecystokinin receptor type A at 10 uM by radioligand binding assay
[37] = target: Cysteinyl leukotriene receptor 1 (Homo sapiens) (UniProt Q9Y271); test: Binding affinity to human cysteinyl leukotriene receptor 1 at 10 uM by radioligand binding assay
[38] = target: Neuronal acetylcholine receptor; alpha4/beta2 (Homo sapiens) (UniProt P17787+P43681); test: Binding affinity to human N neuronal alpha4beta2 receptor at 10 uM by radioligand binding assay; type: protein-complex assay
[39] = target: Type-1 angiotensin II receptor (Homo sapiens) (UniProt P30556); test: Binding affinity to human angiotensin receptor 1 at 10 uM by radioligand binding assay
[40] = target: 4-aminobutyrate aminotransferase, mitochondrial (Homo sapiens) (UniProt P80404); test: Binding affinity to GABA transaminase (unknown origin) at 10 uM
[41] = target: Corticotropin-releasing factor receptor 1 (Homo sapiens) (UniProt P34998); test: Binding affinity to human CRF1 receptor at 10 uM by radioligand binding assay
[42] = target: Prostaglandin G/H synthase 1 (Homo sapiens) (UniProt P23219); test: Binding affinity to human COX1 at 10 uM
[43] = target: Adrenergic receptor alpha-1 (Homo sapiens) (UniProt P35348+P25100+P35368); test: Binding affinity to human alpha-1 adrenergic receptor (unknown origin) at 10 uM by radioligand binding assay
[44] = species: Homo sapiens; test: Binding affinity to small conductance calcium-activated potassium channel (unknown origin) at 10 uM by radioligand binding assay

Transient receptor potential cation channel subfamily V member 1 (Homo sapiens), sequence (Q8NER1 whole entry): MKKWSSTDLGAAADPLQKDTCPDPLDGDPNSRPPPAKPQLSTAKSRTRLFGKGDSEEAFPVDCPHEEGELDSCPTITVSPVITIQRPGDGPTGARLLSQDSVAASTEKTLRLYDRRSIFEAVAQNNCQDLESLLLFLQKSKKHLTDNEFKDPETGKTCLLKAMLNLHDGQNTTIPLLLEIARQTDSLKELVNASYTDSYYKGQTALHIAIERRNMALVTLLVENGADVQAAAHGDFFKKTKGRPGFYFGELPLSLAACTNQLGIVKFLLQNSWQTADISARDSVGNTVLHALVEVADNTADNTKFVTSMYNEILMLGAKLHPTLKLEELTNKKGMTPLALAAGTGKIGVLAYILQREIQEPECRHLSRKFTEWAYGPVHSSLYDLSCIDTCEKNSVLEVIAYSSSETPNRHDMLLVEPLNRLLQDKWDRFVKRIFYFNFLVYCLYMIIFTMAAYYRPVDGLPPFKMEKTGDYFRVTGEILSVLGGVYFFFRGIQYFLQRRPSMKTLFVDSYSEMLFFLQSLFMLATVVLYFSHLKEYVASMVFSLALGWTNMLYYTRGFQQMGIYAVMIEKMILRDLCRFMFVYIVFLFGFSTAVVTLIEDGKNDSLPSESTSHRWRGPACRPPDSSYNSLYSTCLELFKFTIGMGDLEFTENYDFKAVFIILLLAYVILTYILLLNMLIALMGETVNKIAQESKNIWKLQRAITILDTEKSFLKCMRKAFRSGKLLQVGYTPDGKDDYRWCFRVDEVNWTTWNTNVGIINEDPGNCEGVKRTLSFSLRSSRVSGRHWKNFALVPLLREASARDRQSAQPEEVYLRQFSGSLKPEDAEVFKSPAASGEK
Thromboxane A2 receptor (Homo sapiens), sequence (P21731 whole entry): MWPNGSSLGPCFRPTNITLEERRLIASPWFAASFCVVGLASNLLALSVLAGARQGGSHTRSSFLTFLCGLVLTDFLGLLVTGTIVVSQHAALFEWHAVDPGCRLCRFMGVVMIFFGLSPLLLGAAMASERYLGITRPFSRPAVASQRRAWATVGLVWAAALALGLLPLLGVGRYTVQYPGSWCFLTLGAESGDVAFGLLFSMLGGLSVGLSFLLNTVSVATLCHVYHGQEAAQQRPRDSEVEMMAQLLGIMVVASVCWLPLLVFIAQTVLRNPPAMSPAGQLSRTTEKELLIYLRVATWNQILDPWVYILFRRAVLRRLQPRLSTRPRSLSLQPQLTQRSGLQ
Corticotropin-releasing factor receptor 1 (Homo sapiens), sequence (P34998 whole entry): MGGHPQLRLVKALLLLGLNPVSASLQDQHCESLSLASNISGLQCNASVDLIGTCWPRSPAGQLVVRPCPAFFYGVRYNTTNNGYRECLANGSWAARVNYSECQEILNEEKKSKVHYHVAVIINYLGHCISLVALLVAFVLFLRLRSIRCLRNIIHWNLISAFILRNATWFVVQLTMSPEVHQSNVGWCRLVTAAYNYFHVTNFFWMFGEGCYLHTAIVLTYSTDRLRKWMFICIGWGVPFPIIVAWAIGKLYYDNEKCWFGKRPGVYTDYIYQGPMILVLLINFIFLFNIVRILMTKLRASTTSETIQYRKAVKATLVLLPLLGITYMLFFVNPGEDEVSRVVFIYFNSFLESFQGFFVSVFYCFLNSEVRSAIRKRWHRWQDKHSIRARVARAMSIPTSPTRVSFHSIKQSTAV
Opioid receptors; mu/kappa/delta (Homo sapiens), sequence (P35372 whole entry, looked up): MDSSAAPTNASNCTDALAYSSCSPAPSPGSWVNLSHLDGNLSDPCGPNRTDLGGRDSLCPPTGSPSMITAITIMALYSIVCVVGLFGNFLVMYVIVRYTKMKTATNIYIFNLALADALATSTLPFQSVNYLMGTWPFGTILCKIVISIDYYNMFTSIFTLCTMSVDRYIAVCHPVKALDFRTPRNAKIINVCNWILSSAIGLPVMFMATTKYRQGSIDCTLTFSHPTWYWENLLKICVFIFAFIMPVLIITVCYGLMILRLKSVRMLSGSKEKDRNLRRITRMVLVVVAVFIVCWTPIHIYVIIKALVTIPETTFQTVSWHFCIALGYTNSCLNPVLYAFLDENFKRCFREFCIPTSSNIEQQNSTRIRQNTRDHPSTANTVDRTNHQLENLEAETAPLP
Opioid receptors; mu/kappa/delta (Homo sapiens), sequence (P41143 whole entry, looked up): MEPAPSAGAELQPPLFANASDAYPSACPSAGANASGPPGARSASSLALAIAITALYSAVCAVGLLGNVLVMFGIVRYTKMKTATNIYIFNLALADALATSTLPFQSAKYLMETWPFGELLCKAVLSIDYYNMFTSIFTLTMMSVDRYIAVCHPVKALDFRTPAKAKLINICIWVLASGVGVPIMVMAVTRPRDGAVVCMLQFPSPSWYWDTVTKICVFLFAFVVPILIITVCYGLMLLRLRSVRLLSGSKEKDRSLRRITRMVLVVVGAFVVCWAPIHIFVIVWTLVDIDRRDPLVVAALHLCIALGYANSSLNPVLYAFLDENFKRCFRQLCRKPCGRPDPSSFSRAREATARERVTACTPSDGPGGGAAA
Opioid receptors; mu/kappa/delta (Homo sapiens), sequence (P41145 whole entry, looked up): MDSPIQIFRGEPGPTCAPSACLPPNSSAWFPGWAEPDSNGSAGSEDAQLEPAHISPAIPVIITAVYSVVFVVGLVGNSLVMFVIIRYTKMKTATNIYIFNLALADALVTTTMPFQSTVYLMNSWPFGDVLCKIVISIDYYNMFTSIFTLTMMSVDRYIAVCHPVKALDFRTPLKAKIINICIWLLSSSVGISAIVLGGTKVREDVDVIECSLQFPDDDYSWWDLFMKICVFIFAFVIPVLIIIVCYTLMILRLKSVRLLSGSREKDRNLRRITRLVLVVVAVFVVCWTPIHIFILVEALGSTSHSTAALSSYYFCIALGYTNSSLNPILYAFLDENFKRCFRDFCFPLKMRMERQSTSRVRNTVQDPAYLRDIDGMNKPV
3',5'-cyclic-AMP phosphodiesterase 4D (Homo sapiens), sequence (Q08499 whole entry): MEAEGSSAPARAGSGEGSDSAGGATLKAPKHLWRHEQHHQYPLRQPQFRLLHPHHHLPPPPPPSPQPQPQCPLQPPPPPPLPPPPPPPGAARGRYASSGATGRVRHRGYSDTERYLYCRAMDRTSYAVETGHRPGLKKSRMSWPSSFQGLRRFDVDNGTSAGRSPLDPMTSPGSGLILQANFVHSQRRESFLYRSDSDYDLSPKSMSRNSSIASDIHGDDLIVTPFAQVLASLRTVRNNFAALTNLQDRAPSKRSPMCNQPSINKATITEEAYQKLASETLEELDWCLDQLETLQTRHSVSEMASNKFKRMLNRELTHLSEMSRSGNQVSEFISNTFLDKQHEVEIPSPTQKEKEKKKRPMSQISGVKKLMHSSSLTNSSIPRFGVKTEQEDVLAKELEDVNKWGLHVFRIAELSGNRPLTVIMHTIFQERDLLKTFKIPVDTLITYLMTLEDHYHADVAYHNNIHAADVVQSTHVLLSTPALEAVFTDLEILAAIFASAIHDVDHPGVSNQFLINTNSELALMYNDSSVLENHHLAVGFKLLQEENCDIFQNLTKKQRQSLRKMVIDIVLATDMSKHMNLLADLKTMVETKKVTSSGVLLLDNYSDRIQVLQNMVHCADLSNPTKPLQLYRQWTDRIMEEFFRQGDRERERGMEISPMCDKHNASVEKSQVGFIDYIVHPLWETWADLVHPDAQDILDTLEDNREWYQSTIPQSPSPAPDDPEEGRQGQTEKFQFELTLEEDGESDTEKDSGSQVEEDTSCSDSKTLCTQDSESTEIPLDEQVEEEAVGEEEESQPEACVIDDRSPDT
Type-1 angiotensin II receptor (Homo sapiens), sequence (P30556 whole entry): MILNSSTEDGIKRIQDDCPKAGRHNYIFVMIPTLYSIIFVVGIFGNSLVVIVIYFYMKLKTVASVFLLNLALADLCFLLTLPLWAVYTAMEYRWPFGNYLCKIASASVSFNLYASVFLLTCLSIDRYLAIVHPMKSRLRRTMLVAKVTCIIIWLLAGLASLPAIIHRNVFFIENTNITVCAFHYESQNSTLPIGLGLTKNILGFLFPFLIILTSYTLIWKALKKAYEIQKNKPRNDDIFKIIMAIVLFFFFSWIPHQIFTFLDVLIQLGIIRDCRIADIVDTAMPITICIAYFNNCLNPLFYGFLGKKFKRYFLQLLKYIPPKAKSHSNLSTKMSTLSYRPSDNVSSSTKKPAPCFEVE
Adenosine receptor A2a (Homo sapiens), sequence (P29274 whole entry): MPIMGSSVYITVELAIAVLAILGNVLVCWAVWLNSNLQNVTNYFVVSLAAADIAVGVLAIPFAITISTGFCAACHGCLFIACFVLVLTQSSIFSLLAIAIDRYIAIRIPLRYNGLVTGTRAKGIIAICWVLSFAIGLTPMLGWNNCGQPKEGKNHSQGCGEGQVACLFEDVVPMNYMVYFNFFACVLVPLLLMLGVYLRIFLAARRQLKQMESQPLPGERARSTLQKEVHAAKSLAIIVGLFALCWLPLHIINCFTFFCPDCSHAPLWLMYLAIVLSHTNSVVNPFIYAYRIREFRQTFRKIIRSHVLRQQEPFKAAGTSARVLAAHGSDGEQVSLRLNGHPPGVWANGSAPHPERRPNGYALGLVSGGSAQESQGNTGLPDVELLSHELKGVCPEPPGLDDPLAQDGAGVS
Prostaglandin G/H synthase 1 (Homo sapiens), sequence (P23219 whole entry): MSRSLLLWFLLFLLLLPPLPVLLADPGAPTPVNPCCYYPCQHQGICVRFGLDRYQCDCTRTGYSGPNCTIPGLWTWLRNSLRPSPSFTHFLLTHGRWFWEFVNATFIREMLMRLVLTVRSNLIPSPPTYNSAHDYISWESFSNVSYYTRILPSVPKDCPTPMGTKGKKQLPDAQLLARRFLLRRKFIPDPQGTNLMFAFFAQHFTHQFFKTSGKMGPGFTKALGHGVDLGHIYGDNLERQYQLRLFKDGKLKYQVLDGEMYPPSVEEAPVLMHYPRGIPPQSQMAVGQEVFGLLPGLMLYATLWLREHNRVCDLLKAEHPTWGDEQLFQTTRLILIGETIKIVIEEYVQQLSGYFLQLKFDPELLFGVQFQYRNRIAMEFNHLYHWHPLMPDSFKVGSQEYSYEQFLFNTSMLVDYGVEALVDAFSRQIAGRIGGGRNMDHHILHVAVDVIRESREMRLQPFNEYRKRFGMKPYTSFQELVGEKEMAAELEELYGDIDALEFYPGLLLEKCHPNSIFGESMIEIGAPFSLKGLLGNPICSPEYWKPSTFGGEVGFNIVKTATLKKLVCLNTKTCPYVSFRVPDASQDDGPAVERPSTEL

Structure (SMILES): CCCCCCNC(=O)Oc1cccc(-c2ccc([C@H](C)C(=O)O)cc2F)c1
- Activity [1]: -5.6%
- Activity [2]: 2.3%
- Activity [3]: -17.5%
- Activity [4]: -7.5%
- Activity [5]: -0.5%
- Activity [6]: -4.1%
- Activity [7]: 2.9%
- Activity [8]: 38.1%
- Activity [9]: -7.3%
- Activity [10]: -11.2%
- Activity [11]: 13.7%
- Activity [12]: -10.7%
- Activity [13]: -6.4%
- Activity [14]: 4.2%
- Activity [15]: 3.3%
- Activity [16]: -5.8%
- Activity [17]: -4.3%
- Activity [18]: -18.6%
- Activity [19]: -26.1%
- Activity [20]: -3%
- Activity [21]: -8.1%
- Activity [22]: -9.9%
- Activity [23]: -2.7%
- Activity [24]: 0.4%
- Activity [25]: -19.5%
- Activity [26]: -3.3%
- Activity [27]: 3.7%
- Activity [28]: -14.9%
- Activity [29]: 0.5%
- Activity [30]: -9.5%
- Activity [31]: 0.4%
- Activity [32]: 15.5%
- Activity [33]: -3.2%
- Activity [34]: 17.9%
- Activity [35]: 5%
- Activity [36]: 10.8%
- Activity [37]: 0%
- Activity [38]: -5.6%
- Activity [39]: -3.4%
- Activity [40]: 7.6%
- Activity [41]: 11.9%
- Activity [42]: 99.2%
- Activity [43]: -3.8%
- Activity [44]: -10.6%
